Source: patent publication US20240376094A2, “SELECTIVE BCL-XL PROTAC COMPOUNDS AND METHODS OF USE” (Les Laboratoires Servier, priority 2021, published 2024)

Columns and labels:
COR-L105 = experiment: CellTiter-Glo proliferation assay, COR-L105; format: cell-based; details: Homo sapiens, COR-L105, 120 h, COR-L105, 5 days; for Emax: read-out: COR-L105 Span (max)
How it was run: (§1)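 Both lines grown in RPMI-1640 + 10% FBS. COR-L105 plated flat at 1,000 cells/well overnight; NCI-H1650 grown as spheroids, 3,000 cells/well, 72 h. Compounds at 0.508 nM-10 μM final for 5 days, 37° C. ATP read by CellTiter-Glo (3D version for spheroids); IC50 from variable-slope fit normalized to untreated cells.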

NCI-H1650 = experiment: CellTiter-Glo 3D proliferation assay, NCI-H1650 spheroids; format: cell-based; details: Homo sapiens, NCI-H1650, 120 h, 5 days; for Emax: read-out: NCI-H1650 Span (Amax)
How it was run: as §1

Structure (SMILES)	IC50 (COR-L105) [nM]	Emax (COR-L105) [%]	IC50 (NCI-H1650) [nM]	Emax (NCI-H1650) [%]
Cc1ncsc1-c1ccc(CNC(=O)[C@@H]2C[C@@H](O)CN2C(=O)[C@@H](NC(=O)CCCCCCCCCCC(=O)N2CCN(CC#Cc3ccc(OCCCc4sc(N5CCCc6c5nnc(Nc5nc7ccccc7s5)c6C)nc4C(=O)O)c(F)c3)CC2)C(C)(C)C)cc1 [Example 48, 2-(3-(benzo[d]thiazol-2-ylamino)-4-methyl-6,7-dihydropyrido [2,3-c]pyridazin-8(5H)-yl)-5-(3-(2-fluoro-4-(3-(4-(12-(((S)-1-((2S,4R)-4-hydroxy-2-((4-(4-methylthiazol-5-yl)benzyl)carbamoyl)pyrrolidin-1-yl)-3,3-dimethyl-1-oxobutan-2-yl)amino)-12-oxododecanoyl)piperazin-1-yl)prop-1-yn-1-yl)phenoxy)propyl)thiazole-4-carboxylic acid]	111	94	23.7	88.6
Cc1ncsc1-c1ccc([C@H](C)NC(=O)[C@@H]2C[C@@H](O)CN2C(=O)[C@@H](NC(=O)CCCCCCCCCCCN2CCN(CC#Cc3ccc(OCCCc4sc(N5CCCc6c5nnc(Nc5nc7ccccc7s5)c6C)nc4C(=O)O)c(F)c3)CC2)C(C)(C)C)cc1 [Example 51, 2-(3-(benzo[d]thiazol-2-ylamino)-4-methyl-6,7-dihydropyrido [2,3-c]pyridazin-8(5H)-yl)-5-(3-(2-fluoro-4-(3-(4-(12-(((S)-1-((2S,4R)-4-hydroxy-2-(((S)-1-(4-(4-methylthiazol-5-yl)phenyl)ethyl)carbamoyl)pyrrolidin-1-yl)-3,3-dimethyl-1-oxobutan-2-yl)amino)-12-oxododecyl)piperazin-1-yl)prop-1-yn-1-yl)phenoxy)propyl)thiazole-4-carboxylic acid]	37.6	72.8	4.23	90.8
Cc1ncsc1-c1ccc([C@H](C)NC(=O)[C@@H]2C[C@@H](O)CN2C(=O)[C@@H](NC(=O)CCCC(=O)N2CCN(CC#Cc3ccc(OCCCc4sc(N5CCCc6c5nnc(Nc5nc7ccccc7s5)c6C)nc4C(=O)O)c(F)c3)CC2)C(C)(C)C)cc1 [Example 35, 2-(3-(benzo[d]thiazol-2-ylamino)-4-methyl-6,7-dihydropyrido [2,3-c]pyridazin-8(5H)-yl)-5-(3-(2-fluoro-4-(3-(4-(5-(((S)-1-((2S,4R)-4-hydroxy-2-(((S)-1-(4-(4-methylthiazol-5-yl)phenyl)ethyl)carbamoyl)pyrrolidin-1-yl)-3,3-dimethyl-1-oxobutan-2-yl)amino)-5-oxopentanoyl)piperazin-1-yl)prop-1-yn-1-yl)phenoxy)propyl)thiazole-4-carboxylic acid]	90.2	87.9	7.7	88.5
Cc1ncsc1-c1ccc(CNC(=O)[C@@H]2C[C@@H](O)CN2C(=O)[C@@H](NC(=O)CCCCCCC(=O)N2CCN(CC#Cc3ccc(OCCCc4sc(N5CCCc6c5nnc(Nc5nc7ccccc7s5)c6C)nc4C(=O)O)c(F)c3)CC2)C(C)(C)C)cc1 [Example 33, 2-(3-(benzo[d]thiazol-2-ylamino)-4-methyl-6,7-dihydropyrido [2,3-c]pyridazin-8(5H)-yl)-5-(3-(2-fluoro-4-(3-(4-(8-(((S)-1-((2S,4R)-4-hydroxy-2-((4-(4-methylthiazol-5-yl)benzyl)carbamoyl)pyrrolidin-1-yl)-3,3-dimethyl-1-oxobutan-2-yl)amino)-8-oxooctanoyl)piperazin-1-yl)prop-1-yn-1-yl)phenoxy)propyl) thiazole-4-carboxylic acid]	93.7	76.4	8.06	89.1
Cc1ncsc1-c1ccc([C@H](C)NC(=O)[C@@H]2C[C@@H](O)CN2C(=O)[C@@H](NC(=O)CCCCCCCCCCC(=O)N2CCN(CCOC34CC5(C)CC(C)(CC(Cn6ncc(-c7ccc(N8CCCc9c8nnc(Nc8nc%10ccccc%10s8)c9C)nc7C(=O)O)c6C)(C5)C3)C4)CC2)C(C)(C)C)cc1 [Example 47, 6-(3-(benzo[d]thiazol-2-ylamino)-4-methyl-6,7-dihydropyrido [2,3-c]pyridazin-8(5H)-yl)-3-(1-(((1r,3s,5R,7S)-3-(2-(4-(12-(((S)-1-((2S,4R)-4-hydroxy-2-(((S)-1-(4-(4-methylthiazol-5-yl)phenyl)ethyl)carbamoyl)pyrrolidin-1-yl)-3,3-dimethyl-1-oxobutan-2-yl)amino)-12-oxododecanoyl)piperazin-1-yl)ethoxy)-5,7-dimethyladamantan-1-yl)methyl)-5-methyl-1H-pyrazol-4-yl)picolinic acid]	228	97.6	12.5	97.1
Cc1ncsc1-c1ccc([C@H](C)NC(=O)[C@@H]2C[C@@H](O)CN2C(=O)[C@@H](NC(=O)CCCCCCCCCCC(=O)N2CCN(CC#Cc3ccc(OCCCc4sc(N5CCCc6c5nnc(Nc5nc7ccccc7s5)c6C)nc4C(=O)O)c(F)c3)CC2)C(C)(C)C)cc1 [Example 46, 2-(3-(benzo[d]thiazol-2-ylamino)-4-methyl-6,7-dihydropyrido [2,3-c]pyridazin-8(5H)-yl)-5-(3-(2-fluoro-4-(3-(4-(12-(((S)-1-((2S,4R)-4-hydroxy-2-(((S)-1-(4-(4-methylthiazol-5-yl)phenyl)ethyl)carbamoyl)pyrrolidin-1-yl)-3,3-dimethyl-1-oxobutan-2-yl)amino)-12-oxododecanoyl)piperazin-1-yl)prop-1-yn-1-yl)phenoxy)propyl)thiazole-4-carboxylic acid]	163	101	4.91	83.2
Cc1ncsc1-c1ccc([C@H](C)NC(=O)[C@@H]2C[C@@H](O)CN2C(=O)[C@@H](NC(=O)CC23CC4CC(C2)CC(CC(=O)N2CCN(CC#Cc5ccc(OCCCc6sc(N7CCCc8c7nnc(Nc7nc9ccccc9s7)c8C)nc6C(=O)O)c(F)c5)CC2)(C4)C3)C(C)(C)C)cc1 [Example 42, 2-(3-(benzo[d]thiazol-2-ylamino)-4-methyl-6,7-dihydropyrido [2,3-c]pyridazin-8(5H)-yl)-5-(3-(2-fluoro-4-(3-(4-(2-((3S,5R)-3-(2-(((S)-1-((2S,4R)-4-hydroxy-2-(((S)-1-(4-(4-methylthiazol-5-yl)phenyl)ethyl)carbamoyl)pyrrolidin-1-yl)-3,3-dimethyl-1-oxobutan-2-yl)amino)-2-oxoethyl)adamantan-1-yl)acetyl)piperazin-1-yl)prop-1-yn-1-yl)phenoxy)propyl)thiazole-4-carboxylic acid]	290	91.8	3.4	137
